The data set can be described thus: Inhibition of P-gp in human K562/A02 cells over expressing P-gp assessed as reversal of multi-drug resistance by measuring ADR IC50 measured after 72 hrs by CCK-8 assay. On the technique in general: Tetrazolium assays rely on reduction of a dye to a coloured formazan, in cell work by metabolically active cells.

SMILES strings stand for the structures.

Regarding `COc1ccc(C(=O)Nc2ccccc2/N=N/c2ccc(CCN3CCc4cc(OC)c(OC)cc4C3)cc2)cc1OC`, the IC50 (as a rule, the concentration that gives 50% inhibition) amounted to 35 nM. Turning to `COc1cc2c(cc1OC)CN(CCc1ccc(/N=N/c3ccccc3NC(=O)c3ccc(Cl)c(Cl)c3)cc1)CC2`, the IC50 stood at 1600 nM. As to `COc1cc2c(cc1OC)CN(CCc1ccc(/N=N/c3ccccc3NC(=O)c3ccc(C)c(C)c3)cc1)CC2`, the half-inhibitory concentration (IC50) turned out to be 168 nM. For `COc1cc2c(cc1OC)CN(CCc1ccc(/N=N/c3ccccc3NC(=O)c3ccc(F)c(F)c3)cc1)CC2`, the half-maximal inhibitory concentration (IC50) is 108 nM. As for `COc1cc2c(cc1OC)CN(CCc1ccc(/N=N/c3ccccc3NC(=O)c3cc(OC)c(OC)c(OC)c3)cc1)CC2`, the figure is 1290 nM. With `COc1cc2c(cc1OC)CN(CCc1ccc(/N=N/c3ccccc3NC(=O)c3ccccc3)cc1)CC2`, the half-maximal inhibitory concentration (IC50) amounted to 70 nM. Consider `COc1cccc(C(=O)Nc2ccccc2/N=N/c2ccc(CCN3CCc4cc(OC)c(OC)cc4C3)cc2)c1`, for which the concentration for half-maximal inhibition (IC50) came to 68 nM. Turning to `COc1ccc(C(=O)Nc2ccccc2/N=N/c2ccc(CCN3CCc4cc(OC)c(OC)cc4C3)cc2)cc1`, the IC50 turned out to be 88 nM.

With `COc1cc2c(cc1OC)CN(CCc1ccc(/N=N/c3ccccc3NC(=O)c3ccccc3OC)cc1)CC2`, the concentration for half-maximal inhibition (IC50) stood at 15 nM. `COc1cc2c(cc1OC)CN(CCc1ccc(/N=N/c3ccccc3NC(=O)c3ccc(C)cc3)cc1)CC2`: the half-maximal inhibitory concentration (IC50) worked out at 44 nM. Turning to `COc1cc2c(cc1OC)CN(CCc1ccc(/N=N/c3ccccc3NC(=O)c3ccccc3[N+](=O)[O-])cc1)CC2`, the IC50 turned out to be 20 nM. Regarding `COc1cc2c(cc1OC)CN(CCc1ccc(/N=N/c3ccccc3NC(=O)c3ccc([N+](=O)[O-])cc3)cc1)CC2`, the IC50 worked out at 120 nM. For the molecule `COc1cc2c(cc1OC)CN(CCc1ccc(/N=N/c3ccccc3NC(=O)c3cccc([N+](=O)[O-])c3)cc1)CC2`, the concentration for half-maximal inhibition (IC50) amounted to 50 nM. With `COc1cc2c(cc1OC)CN(CCc1ccc(/N=N/c3ccccc3NC(=O)c3ccccc3Cl)cc1)CC2`, the IC50 is 32 nM. On to `COc1cc2c(cc1OC)CN(CCc1ccc(/N=N/c3ccccc3NC(=O)c3ccc(Cl)cc3)cc1)CC2`, for which the 50% inhibitory concentration (IC50) was 83 nM. For `COc1cc2c(cc1OC)CN(CCc1ccc(/N=N/c3ccccc3NC(=O)c3cccc(Cl)c3)cc1)CC2`, the IC50 stood at 43 nM. As for `COc1cc2c(cc1OC)CN(CCc1ccc(/N=N/c3ccccc3NC(=O)c3ccc(C(C)(C)C)cc3)cc1)CC2`, the figure is 105 nM.

Turning to `COc1cc2c(cc1OC)CN(CCc1ccc(NC(=O)c3ccccc3/N=N/c3ccccc3)cc1)CC2`, the concentration for half-maximal inhibition (IC50) stood at 92 nM.

Regarding `COc1ccccc1/N=N/c1ccccc1C(=O)Nc1ccc(CCN2CCc3cc(OC)c(OC)cc3C2)cc1`, the IC50 was 275 nM.

`COc1cc2c(cc1OC)CN(CCc1ccc(NC(=O)c3ccccc3/N=N/c3cccc(Cl)c3)cc1)CC2`: the concentration for half-maximal inhibition (IC50) is 84 nM. As for `COc1cc2c(cc1OC)CN(CCc1ccc(NC(=O)c3ccccc3/N=N/c3ccc(Cl)cc3)cc1)CC2`, the figure is 82 nM; as for `COc1cc2c(cc1OC)CN(CCc1ccc(NC(=O)c3ccccc3/N=N/c3ccc(C)cc3)cc1)CC2`, 68 nM. As to `COc1ccc(C(=O)Nc2ccccc2C(=O)Nc2ccc(CCN3CCc4cc(OC)c(OC)cc4C3)cc2)cc1OC` [N-(2-(4-(2-(6,7-dimethoxy-3,4-dihydroisoquinolin-2(1H)-yl)ethyl)phenylcarbamoyl)phenyl)-3,4-dimethoxybenzamide], the half-maximal inhibitory concentration (IC50) was determined as 34 nM.

Source of the values: BindingDB's records for PubMed 39369480 (Xuzhou Medical University).
